Data: ChEMBL document CHEMBL1149017, “Herbicidal effects of geldanamycin and nigericin, antibiotics from Streptomyces hygroscopicus” (J Nat Prod, 1986)
Active and inactive are the calls of the source. The rule behind the calls is not given here.

What was measured:
[1] = Toxicity in ip dosed mouse; assay type: organism-based; conditions: in vivo
Lepidium sativum [2] = assay: Herbicidal activity against Lepidium sativum assessed as occurrence of browning and tissue necrosis; assay type: functional, organism-based
Lepidium sativum [3] = assay: Herbicidal activity against Lepidium sativum assessed as inhibition of radicle growth of seeds at 1 to 2 ppm after 69 to 75 hrs in dark; assay type: functional; set-up: scale not given: the % may be the effect or the level left
Lepidium sativum [4] = assay: Herbicidal activity against Lepidium sativum assessed as inhibition of radicle growth of seed at 3 to 4 ppm after 69 to 75 hrs in dark; assay type: functional, organism-based
Rattus norvegicus = assay: Acute toxicity in rat at 2500 to 5000 mg/kg, po; assay type: organism-based; set-up: dose 2500-5000 mg/kg, route oral; conditions: in vivo

SMILES	LD50 [1] [mg/kg]	Activity (Lepidium sativum [2])	Activity (Lepidium sativum [3]) [%]	Activity (Lepidium sativum [4])	Activity (Rattus norvegicus)
CO[C@@H]1C[C@@H](C[C@H]2CC[C@H](C)[C@H]([C@@H](C)C(=O)O)O2)O[C@]2(O[C@](C)([C@H]3CC[C@@](C)([C@@H]4O[C@@H]([C@H]5O[C@@](O)(CO)[C@H](C)C[C@@H]5C)C[C@@H]4C)O3)C[C@H]2C)[C@@H]1C [NIGERICIN]	10	inactive	50	Active	–
COC1=C2C[C@@H](C)C[C@H](OC)[C@H](O)[C@@H](C)/C=C(\C)[C@H](OC(N)=O)[C@@H](OC)/C=C\C=C(/C)C(=O)NC(=CC1=O)C2=O [GELDANAMYCIN]	1	–	50	Active	Toxic
